The target of the assay is T1, mPRβ (Homo sapiens, UniProt Q8TEZ7).
T1 construct: expressed in transfected cells; host or cells: Saccharomyces cerevisiae BY4742, GAL1-driven pYES260 plasmid
T1 sequence (Q8TEZ7 1-354): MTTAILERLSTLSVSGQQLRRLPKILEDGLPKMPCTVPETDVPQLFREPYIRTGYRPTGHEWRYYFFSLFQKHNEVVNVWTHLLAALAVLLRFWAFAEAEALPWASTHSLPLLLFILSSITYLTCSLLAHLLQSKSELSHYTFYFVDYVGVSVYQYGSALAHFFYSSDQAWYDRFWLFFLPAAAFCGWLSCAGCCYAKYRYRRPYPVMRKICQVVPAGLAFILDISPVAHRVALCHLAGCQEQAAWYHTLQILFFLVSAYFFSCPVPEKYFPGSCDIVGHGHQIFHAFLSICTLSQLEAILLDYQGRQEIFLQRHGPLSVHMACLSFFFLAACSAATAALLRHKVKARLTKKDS
Nature of the assay: FET3-lacZ reporter repression in yeast expressing mPRβ. The format is cell-based. The conditions noted are these: Table 3, iron deficient LIM, 0.05% galactose. From the text: Plasmids and primers. Human PAQRs were cloned into various vectors by PCR from commercially/publically available cDNAs. PAQRs were cloned into the pYES260 (Melcher, 2000), pRS316 (Liu et al., 1992) or pGREG536 (Jansen et al., 2005) expression vectors using gap repair. The pJK90 plasmid containing a Dual Topology Reporter (DTR)-tagged OST4 gene driven by the constitutive TPI1 promoter was kindly provided by Dr. Gunnar von Heijne (Stockholm University) (Kim et al., 2003). The OST4 open reading frame in pJK90 was replaced with the PAQR6 and mPRα open reading frames by gap repair. Primers for all cloning reactions are listed herein. Proteins expressed in pYES260 have an N-terminal 6×-histidine tag followed by a TEV protease cleavage site. Proteins expressed in pGREG536 have an N-terminal 7×-HA tag. Proteins expressed in the pRS316 vector are untagged. The pYES260, pRS316 and pGREG536 vectors allow for galactose-inducible expression via the GAL1 promoter. […] The FET3-lacZ plasmid was previously described (Kupchak et al., 2007). […]
Assays and growth conditions. […] Cells were allowed to grow to mid-log phase at which time the activity of the FET3 gene was monitored using a FET3-lacZ promoter-reporter construct. lacZ activities are presented as a percentage of activity seen in untreated cells expressing the appropriate empty expression vector control. […]

Among the data in patent US8809001B2, “High throughput assays for inhibitors and activators of PAQR receptors” (University of Florida Research Foundation, Inc., priority 2007, dated 2014) are EC50 values, retold here.

Molecules are shown by their SMILES. Where “and” joins values, the source holds several entries; their conditions need not be identical. Equal values may be shown once.

Take `CC(=O)[C@H]1CC[C@H]2[C@@H]3CCC4=CC(=O)CC[C@]4(C)[C@H]3CC[C@]12C` [Progesterone, progesterone]: the concentration giving a half-maximal response (EC50) is 1.6 nM and 1 to 3 nM.

In general, EC50 refers to the concentration needed to bring the measured effect to its halfway point. A low value points to greater potency.
